Data: patent publication US20250230193A1, “CYCLIC COMPOUND HAVING SELECTIVE KRAS INHIBITORY EFFECT ON HRAS AND NRAS” (CHUGAI SEIYAKU KABUSHIKI KAISHA, priority 2022, published 2025)
Where two headings read alike, the source gives them in different places.

How the values were obtained:
[1] = biological target: GDP-bound HRAS wild-type protein (Homo sapiens, UniProt P01112); assay: Binding to HRAS by surface plasmon resonance (SPR), Single Cycle Kinetics; conditions: SPR; for HRAS/KRAS (ratio of KD value for GDP-bound HRAS wild-type protein to KD value for KRAS): KD ratio class; for HRAS/KRAS (ratio of KD value with respect to HRAS to KD value with respect to KRAS): GDP-bound HRAS wild-type vs GDP-bound KRAS wild-type
[2] = test system: human lung cancer strain NCI-H441
[3] = biological target: GDP-bound NRAS wild-type protein (Homo sapiens, UniProt P01111); assay: Binding to NRAS by surface plasmon resonance (SPR), Single Cycle Kinetics; conditions: SPR; for NRAS/KRAS (ratio of KD value for GDP-bound NRAS wild-type protein to KD value for KRAS): KD ratio class; for NRAS/KRAS (ratio of KD value with respect to NRAS to KD value with respect to KRAS): GDP-bound NRAS wild-type vs GDP-bound KRAS wild-type
[4] = biological target: GDP-bound KRAS wild-type protein (Homo sapiens, UniProt P01116); assay: Binding to KRAS by surface plasmon resonance (SPR), Single Cycle Kinetics; conditions: GDP-bound KRAS wild-type protein
[5] = read-out: NCI-H441 IC50, NCI-H441 cells, 4 days, CellTiter-Glo

Sequence of GDP-bound HRAS wild-type protein (P01112 whole entry): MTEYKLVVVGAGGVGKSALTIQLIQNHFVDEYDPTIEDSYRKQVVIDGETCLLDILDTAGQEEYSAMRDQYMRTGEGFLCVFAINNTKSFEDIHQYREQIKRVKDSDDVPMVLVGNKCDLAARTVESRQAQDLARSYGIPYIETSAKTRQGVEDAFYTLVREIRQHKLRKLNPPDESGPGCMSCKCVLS
Sequence of GDP-bound NRAS wild-type protein (P01111 whole entry): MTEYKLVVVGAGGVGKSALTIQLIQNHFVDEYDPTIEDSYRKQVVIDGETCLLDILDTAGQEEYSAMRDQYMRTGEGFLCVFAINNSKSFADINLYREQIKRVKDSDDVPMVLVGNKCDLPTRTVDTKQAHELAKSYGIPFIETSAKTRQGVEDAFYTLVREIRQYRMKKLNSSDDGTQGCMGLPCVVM

Compound	HRAS/KRAS (ratio of KD value for GDP-bound HRAS wild-type protein to KD value for KRAS) [1]	IC50 [2, 5] [nM]	NRAS/KRAS (ratio of KD value for GDP-bound NRAS wild-type protein to KD value for KRAS) [3]	Kd ([4]; SPR, Single Cycle Kinetics) [nM]	HRAS/KRAS (ratio of KD value with respect to HRAS to KD value with respect to KRAS) [1]	IC50 [2] [nM]	NRAS/KRAS (ratio of KD value with respect to NRAS to KD value with respect to KRAS) [3]	HRAS/KRAS (ratio of KD value with respect to GDP-bound HRAS wild-type protein to KD value with respect to KRAS) ([1]; KD ratio HRAS/KRAS)	NRAS/KRAS (ratio of KD value with respect to GDP-bound NRAS wild-type protein to KD value with respect to KRAS) ([3]; KD ratio NRAS/KRAS)	Kd ([4]; SPR Single Cycle Kinetics, 1:1 binding model) [nM]
CCO[C@@H]1C[C@H]2C(=O)NC3(CC(C)(C)C3)C(=O)N(C)[C@@H](C(CC)CC)C(=O)N(C)C(C(C)C)CC(=O)N(C)[C@@H](CC3CC3)C(=O)N[C@@H]([C@@H](C)CC)C(=O)N(C)CC(=O)N(C)[C@H]3C/C=C\CCN(C3=O)[C@@H](Cc3ccc(C(F)(F)F)cc3)C(=O)N(C)CC(=O)N[C@@H](CCc3cc(F)c(C(F)(F)F)c(F)c3)C(=O)N2C1 (stereo partly shown) [PP1593]	A (a compound having 10 or more and less than 20 is denoted as A)	144	A (a compound having 10 or more and less than 20 is denoted as A)	4.3	–	–	–	–	–	–
CCO[C@@H]1C[C@H]2C(=O)NC3(CCC3)C(=O)N(C)[C@@H](C3CCCC3)C(=O)N(C)[C@H](C(=O)N(C)C)CC(=O)N(C)[C@@H](COC3CC3)C(=O)N[C@@H]([C@@H](C)CC)C(=O)N(C)CC(=O)N(C)[C@H]3C/C=C\CCN(C3=O)[C@@H](Cc3ccc(C(F)(F)F)cc3)C(=O)N(C)CC(=O)N[C@@H](CCc3cc(F)c(C(F)(F)F)c(F)c3)C(=O)N2C1 [PP1268]	A (a compound having 10 or more and less than 20 is denoted as A)	12.1	A (a compound having 10 or more and less than 20 is denoted as A)	0.045	–	–	–	–	–	–
CC[C@H](C)[C@@H]1NC(=O)[C@H](CC2CC2)N(C)C(=O)C[C@@H](C(=O)N(C)C)N(C)C(=O)[C@H](C2CCCC2)N(C)C(=O)C2(CCC2)NC(=O)[C@@H]2C[C@@H](F)CN2C(=O)[C@H](CCc2cc(F)c(C(F)(F)F)c(F)c2)NC(=O)CN(C)C(=O)[C@H](Cc2ccc(C(F)(F)F)cc2)N2CC/C=C\C[C@@H](C2=O)N(C)C(=O)CN(C)C1=O [PP1497]	A (a compound having 10 or more and less than 20 is denoted as A)	10.7	A (a compound having 10 or more and less than 20 is denoted as A)	0.022	–	–	–	–	–	–
CCCOC[C@H]1C(=O)N[C@@H]([C@@H](C)CC)C(=O)N(C)CC(=O)N(C)[C@H]2C/C=C\CCN(C2=O)[C@@H](Cc2ccc(C(F)(F)F)cc2)C(=O)N(C)CC(=O)N[C@@H](CCc2cc(F)c(C(F)(F)F)c(F)c2)C(=O)N2C[C@H](OCC)C[C@H]2C(=O)NC2(CC(C)(C)C2)C(=O)N(C)[C@@H](C2CCCC2)C(=O)N(C)[C@H](C(=O)N(C)C)CC(=O)N1C [PP1398]	A (a compound having 10 or more and less than 20 is denoted as A)	2.3	A (a compound having 10 or more and less than 20 is denoted as A)	0.032	–	–	–	–	–	–
CCO[C@@H]1C[C@H]2C(=O)NC3(CCC3)C(=O)N(C)[C@@H](C3CCCC3)C(=O)N(C)[C@H](C(=O)N(C)C)CC(=O)N(C)[C@@H](CSC)C(=O)N[C@@H]([C@@H](C)CC)C(=O)N(C)CC(=O)N(C)[C@H]3C/C=C\CCN(C3=O)[C@@H](CC3CCCCC3)C(=O)N(C)CC(=O)N[C@@H](CCc3cc(F)c(C(F)(F)F)c(F)c3)C(=O)N2C1 [PP1463]	A (a compound having 10 or more and less than 20 is denoted as A)	44.5	A (a compound having 10 or more and less than 20 is denoted as A)	0.13	–	–	–	–	–	–
CCO[C@@H]1C[C@H]2C(=O)NC3(CCC3)C(=O)N(C)[C@@H](C3CCCC3)C(=O)N(C)[C@H](C(=O)N(C)C)CC(=O)N(C)[C@@H](CC3CC3)C(=O)N[C@@H]([C@@H](C)CC)C(=O)N(C)CC(=O)N(C)[C@H]3C/C=C\CCN(C3=O)[C@@H](Cc3ccc(C(F)(F)F)cc3)C(=O)N(C)CC(=O)N[C@@H](CCc3ccc(C(F)(F)F)c(OC)c3)C(=O)N2C1 [PP1247]	A (a compound having 10 or more and less than 20 is denoted as A)	6.4	A (a compound having 10 or more and less than 20 is denoted as A)	0.046	–	–	–	–	–	–
CCO[C@@H]1C[C@H]2C(=O)NC3(CCC3)C(=O)N(C)[C@@H](C3CCCC3)C(=O)N(C)[C@H](C(=O)N3CCCC3)CC(=O)N(C)[C@@H](CC3CC3)C(=O)N[C@@H]([C@@H](C)CC)C(=O)N(C)CC(=O)N(C)[C@H]3C/C=C\CCN(C3=O)[C@@H](Cc3ccc(C(F)(F)F)cc3)C(=O)N(C)CC(=O)N[C@@H](CCc3cc(F)c(C(F)(F)F)c(F)c3)C(=O)N2C1 [PP1296]	A (a compound having 10 or more and less than 20 is denoted as A)	14.7	AA (a compound having 20 or more is denoted as AA)	0.12	–	–	–	–	–	–
CCO[C@@H]1C[C@H]2C(=O)NC3(CCC3)C(=O)N(C)[C@@H](C3CCCC3)C(=O)N(C)[C@H](C(=O)N(C)C)CC(=O)N(C)[C@@H](CC)C(=O)N[C@@H]([C@@H](C)CC)C(=O)N(C)CC(=O)N(C)[C@H]3CCCCCN(C3=O)[C@@H](Cc3ccc(F)cc3F)C(=O)N(C)CC(=O)N[C@@H](CCc3cc(F)c(C(F)(F)F)c(F)c3)C(=O)N2C1 [PP0906]	–	–	–	0.29	B (a compound having 3 or more and less than 10 is denoted as B)	36.9	B (a compound having 3 or more and less than 10 is denoted as B)	–	–	–
CCO[C@@H]1C[C@H]2C(=O)NC3(CCC3)C(=O)N(C)[C@@H](C3CCCC3)C(=O)N(C)[C@H](C(=O)N(C)C)CC(=O)N(C)[C@@H](CC3CC3)C(=O)N[C@@H]([C@@H](C)CC)C(=O)N(C)CC(=O)N(C)[C@H]3C/C=C\CCN(C3=O)[C@@H](CC3CCC(F)(F)CC3)C(=O)N(C)CC(=O)N[C@@H](CCc3cc(F)c(C(F)(F)F)c(F)c3)C(=O)N2C1 [PP1447]	A (a compound having 10 or more and less than 20 is denoted as A)	28.9	A (a compound having 10 or more and less than 20 is denoted as A)	0.12	–	–	–	–	–	–
CCO[C@@H]1C[C@H]2C(=O)NC3(CCC3)C(=O)N(C)[C@@H](C3CCCC3)C(=O)N(C)[C@H](C(=O)N(C)C)CC(=O)N(C)[C@@H](CC3CC3)C(=O)N[C@@H]([C@@H](C)CC)C(=O)N(C)CC(=O)N(C)[C@H]3C/C=C\CCN(C3=O)[C@@H](Cc3ccc(C(F)(F)F)cc3)C(=O)N(C)CC(=O)N[C@@H](CCc3ccc(Cl)c(Cl)c3)C(=O)N2C1 [PP1253]	A (a compound having 10 or more and less than 20 is denoted as A)	22.2	A (a compound having 10 or more and less than 20 is denoted as A)	0.2	–	–	–	–	–	–
CCO[C@@H]1C[C@H]2C(=O)NC3(CCC3)C(=O)N(C)[C@@H](C3CCCC3)C(=O)N(CC)[C@H](C(=O)N(C)C)CC(=O)N(C)[C@@H](CC)C(=O)N[C@@H]([C@@H](C)CC)C(=O)N(C)CC(=O)N(C)[C@H]3CCCCCN(C3=O)[C@@H](Cc3ccc(F)cc3)C(=O)N(C)CC(=O)N[C@@H](CCc3cc(F)c(C(F)(F)F)c(F)c3)C(=O)N2C1 [PP0904]	–	–	–	0.8	B (a compound having 3 or more and less than 10 is denoted as B)	58.7	B (a compound having 3 or more and less than 10 is denoted as B)	–	–	–
CCO[C@@H]1C[C@H]2C(=O)NC3(CCC3)C(=O)N(C)[C@@H](C3CCCC3)C(=O)N(C)[C@H](C(=O)N(C)C)CC(=O)N(C)[C@@H](COCC(F)(F)F)C(=O)N[C@@H]([C@@H](C)CC)C(=O)N(C)CC(=O)N(C)[C@H]3C/C=C\CCN(C3=O)[C@@H](Cc3ccc(C(F)(F)F)cc3)C(=O)N(C)CC(=O)N[C@@H](CCc3cc(F)c(C(F)(F)F)c(F)c3)C(=O)N2C1 [PP1267]	A (a compound having 10 or more and less than 20 is denoted as A)	10.8	A (a compound having 10 or more and less than 20 is denoted as A)	0.046	–	–	–	–	–	–
CC[C@H](C)[C@@H]1NC(=O)[C@H](CC(C)C)N(C)C(=O)C[C@@H](C(=O)N(C)C)N(C)C(=O)[C@H](C2CCCC2)N(C)C(=O)C2(CCCC2)NC(=O)C2CCCN2C(=O)[C@H](CCc2ccc(C(F)(F)F)c(Cl)c2)NC(=O)CN(C)C(=O)[C@H](Cc2ccc(C(F)(F)F)cc2)N2CC/C=C(/C)C[C@@H](C2=O)N(C)C(=O)CN(C)C1=O (stereo partly shown) [PP0617]	–	–	–	–	–	159	–	B (a compound having 3 or more and less than 10 is denoted as B)	B (a compound having 3 or more and less than 10 is denoted as B)	6.9
